How the values were obtained:
Assay in all cases: 33PanQinase panel
Format in all cases: biochemical
[1] = biological target: T1, NEK9 (Homo sapiens, UniProt Q8TD19); details: NEK9, 1 µM; read-out: Residual Activity (%)
T1 construct: purchased ProQinase
Summary of the method: (§1)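 1 µM inhibitor; 1% DMSO final; radiometric 33P activity read; result = % residual activity vs DMSO ctrl; 320 wt kinases screened.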

[2] = biological target: T2, MAP3K1 (Homo sapiens, UniProt Q13233); details: MAP3K1, 1 µM; read-out: Residual Activity (%)
T2 construct: purchased ProQinase
Summary of the method: as §1

[3] = biological target: T3, RPS6KA4 (Homo sapiens, UniProt O75676); details: RPS6KA4, 1 µM; read-out: Residual Activity (%)
T3 construct: purchased ProQinase
Summary of the method: as §1

[4] = biological target: T4, IKK-alpha (Homo sapiens, UniProt O15111); details: read-out: Residual Activity (%)
T4 construct: purchased ProQinase
Summary of the method: as §1

[5] = biological target: T5, EPHA6 (Homo sapiens, UniProt Q9UF33); details: EPHA6, 1 µM; read-out: Residual Activity (%)
T5 construct: purchased ProQinase
T5 sequence (Q9UF33 23-1036): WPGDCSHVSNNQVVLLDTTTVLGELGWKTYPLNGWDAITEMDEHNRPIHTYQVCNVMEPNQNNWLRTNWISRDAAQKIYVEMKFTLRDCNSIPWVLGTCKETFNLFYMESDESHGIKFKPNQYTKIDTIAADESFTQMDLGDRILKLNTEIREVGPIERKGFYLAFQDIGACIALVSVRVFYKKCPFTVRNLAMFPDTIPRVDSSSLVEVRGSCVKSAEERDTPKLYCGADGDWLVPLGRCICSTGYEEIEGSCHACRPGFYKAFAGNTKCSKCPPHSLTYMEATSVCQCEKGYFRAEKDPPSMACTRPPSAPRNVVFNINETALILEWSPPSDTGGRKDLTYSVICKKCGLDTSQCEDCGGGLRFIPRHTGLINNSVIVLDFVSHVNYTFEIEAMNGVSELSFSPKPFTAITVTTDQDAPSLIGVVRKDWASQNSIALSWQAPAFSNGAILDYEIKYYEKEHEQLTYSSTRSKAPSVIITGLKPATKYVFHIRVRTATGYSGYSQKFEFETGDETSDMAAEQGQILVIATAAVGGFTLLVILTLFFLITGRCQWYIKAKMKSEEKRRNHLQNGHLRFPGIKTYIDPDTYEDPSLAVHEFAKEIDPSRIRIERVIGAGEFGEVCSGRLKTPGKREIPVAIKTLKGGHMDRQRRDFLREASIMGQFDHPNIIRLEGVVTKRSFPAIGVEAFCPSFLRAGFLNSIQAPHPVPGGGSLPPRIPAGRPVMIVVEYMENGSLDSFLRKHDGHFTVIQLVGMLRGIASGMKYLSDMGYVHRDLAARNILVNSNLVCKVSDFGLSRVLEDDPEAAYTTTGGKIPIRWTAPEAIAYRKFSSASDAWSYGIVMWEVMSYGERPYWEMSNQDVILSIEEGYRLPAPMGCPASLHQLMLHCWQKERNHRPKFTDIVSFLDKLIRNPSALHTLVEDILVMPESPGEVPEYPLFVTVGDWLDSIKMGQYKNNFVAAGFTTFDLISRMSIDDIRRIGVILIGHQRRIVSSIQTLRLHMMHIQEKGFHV
Summary of the method: as §1

[6] = biological target: T6, EIF2AK3 (Homo sapiens, UniProt Q9NZJ5); details: EIF2AK3, 1 µM; read-out: Residual Activity (%)
T6 construct: purchased ProQinase
T6 sequence (Q9NZJ5 30-1116): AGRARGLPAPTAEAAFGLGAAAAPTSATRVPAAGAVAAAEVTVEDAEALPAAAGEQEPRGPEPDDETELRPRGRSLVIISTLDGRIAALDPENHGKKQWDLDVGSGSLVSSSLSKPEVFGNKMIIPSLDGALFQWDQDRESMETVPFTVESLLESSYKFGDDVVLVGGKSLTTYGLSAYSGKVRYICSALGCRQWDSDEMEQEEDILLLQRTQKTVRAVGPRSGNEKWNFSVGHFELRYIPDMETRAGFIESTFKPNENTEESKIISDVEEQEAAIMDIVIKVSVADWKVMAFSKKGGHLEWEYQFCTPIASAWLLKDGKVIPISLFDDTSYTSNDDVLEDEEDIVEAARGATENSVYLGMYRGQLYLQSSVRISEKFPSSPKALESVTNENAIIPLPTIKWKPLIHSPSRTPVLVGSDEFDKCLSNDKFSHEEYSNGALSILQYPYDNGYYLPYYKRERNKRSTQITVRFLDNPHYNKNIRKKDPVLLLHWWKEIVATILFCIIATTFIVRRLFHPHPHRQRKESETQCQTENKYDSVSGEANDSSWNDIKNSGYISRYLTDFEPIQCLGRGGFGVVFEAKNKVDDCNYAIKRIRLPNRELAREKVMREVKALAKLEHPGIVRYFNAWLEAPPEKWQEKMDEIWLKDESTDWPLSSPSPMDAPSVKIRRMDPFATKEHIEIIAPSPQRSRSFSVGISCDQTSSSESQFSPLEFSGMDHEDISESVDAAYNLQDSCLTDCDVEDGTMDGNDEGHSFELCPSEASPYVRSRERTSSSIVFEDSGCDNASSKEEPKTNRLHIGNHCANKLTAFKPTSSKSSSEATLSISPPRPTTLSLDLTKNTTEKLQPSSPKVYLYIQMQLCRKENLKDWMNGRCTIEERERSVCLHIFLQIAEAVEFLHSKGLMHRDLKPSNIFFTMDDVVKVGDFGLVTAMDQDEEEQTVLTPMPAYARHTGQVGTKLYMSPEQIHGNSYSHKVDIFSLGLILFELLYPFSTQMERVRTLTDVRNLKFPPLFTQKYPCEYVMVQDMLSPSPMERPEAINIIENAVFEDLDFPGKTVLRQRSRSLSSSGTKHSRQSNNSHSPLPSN
Summary of the method: as §1

[7] = biological target: T7, WNK2 (Homo sapiens, UniProt Q9Y3S1); details: WNK2, 1 µM; read-out: Residual Activity (%)
T7 construct: purchased ProQinase
Summary of the method: as §1

[8] = biological target: T8, CK1-alpha1 (Homo sapiens, UniProt P48729); details: CK1-alpha1, 1 µM; read-out: Residual Activity (%)
T8 construct: purchased ProQinase
T8 sequence (P48729 whole entry): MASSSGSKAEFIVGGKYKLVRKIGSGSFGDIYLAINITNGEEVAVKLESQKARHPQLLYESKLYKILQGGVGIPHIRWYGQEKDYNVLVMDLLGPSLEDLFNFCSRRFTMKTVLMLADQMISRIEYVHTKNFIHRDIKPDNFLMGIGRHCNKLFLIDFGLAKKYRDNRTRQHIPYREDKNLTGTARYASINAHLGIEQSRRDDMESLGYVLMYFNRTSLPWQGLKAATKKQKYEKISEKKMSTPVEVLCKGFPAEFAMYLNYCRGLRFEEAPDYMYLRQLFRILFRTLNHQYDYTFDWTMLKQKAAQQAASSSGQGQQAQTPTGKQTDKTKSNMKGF
Summary of the method: as §1

[9] = biological target: T9, BLK (Homo sapiens, UniProt P51451); details: read-out: Residual Activity (%)
T9 construct: purchased ProQinase
Summary of the method: as §1

[10] = biological target: T10, TAOK2 (Homo sapiens, UniProt Q9UL54); details: TAOK2, 1 µM; read-out: Residual Activity (%)
T10 construct: purchased ProQinase
Summary of the method: as §1

[11] = biological target: T11, CAMKK1 (Homo sapiens, UniProt Q8N5S9); details: CAMKK1, 1 µM; read-out: Residual Activity (%)
T11 construct: purchased ProQinase
Summary of the method: as §1

[12] = biological target: T12, MARK1 (Homo sapiens, UniProt Q9P0L2); details: MARK1, 1 µM; read-out: Residual Activity (%)
T12 construct: purchased ProQinase
Summary of the method: as §1

[13] = biological target: T13, TRK-A (Homo sapiens, UniProt P04629); details: read-out: Residual Activity (%)
T13 construct: purchased ProQinase
Summary of the method: as §1

[14] = biological target: T14, ARK5 (Homo sapiens, UniProt O60285); details: ARK5, 1 µM; read-out: Residual Activity (%)
T14 construct: purchased ProQinase
Summary of the method: as §1

[15] = biological target: T15, MARK3 (Homo sapiens, UniProt P27448); details: MARK3, 1 µM; read-out: Residual Activity (%)
T15 construct: purchased ProQinase
Summary of the method: as §1

[16] = biological target: T16, MYLK (Homo sapiens, UniProt Q15746); details: read-out: Residual Activity (%)
T16 construct: purchased ProQinase
Summary of the method: as §1

[17] = biological target: T17, PKC-beta2 (Homo sapiens, UniProt P05771); details: PKC-beta2, 1 µM; read-out: Residual Activity (%)
T17 construct: purchased ProQinase
T17 sequence (P05771 1-673 isoform P05771-2): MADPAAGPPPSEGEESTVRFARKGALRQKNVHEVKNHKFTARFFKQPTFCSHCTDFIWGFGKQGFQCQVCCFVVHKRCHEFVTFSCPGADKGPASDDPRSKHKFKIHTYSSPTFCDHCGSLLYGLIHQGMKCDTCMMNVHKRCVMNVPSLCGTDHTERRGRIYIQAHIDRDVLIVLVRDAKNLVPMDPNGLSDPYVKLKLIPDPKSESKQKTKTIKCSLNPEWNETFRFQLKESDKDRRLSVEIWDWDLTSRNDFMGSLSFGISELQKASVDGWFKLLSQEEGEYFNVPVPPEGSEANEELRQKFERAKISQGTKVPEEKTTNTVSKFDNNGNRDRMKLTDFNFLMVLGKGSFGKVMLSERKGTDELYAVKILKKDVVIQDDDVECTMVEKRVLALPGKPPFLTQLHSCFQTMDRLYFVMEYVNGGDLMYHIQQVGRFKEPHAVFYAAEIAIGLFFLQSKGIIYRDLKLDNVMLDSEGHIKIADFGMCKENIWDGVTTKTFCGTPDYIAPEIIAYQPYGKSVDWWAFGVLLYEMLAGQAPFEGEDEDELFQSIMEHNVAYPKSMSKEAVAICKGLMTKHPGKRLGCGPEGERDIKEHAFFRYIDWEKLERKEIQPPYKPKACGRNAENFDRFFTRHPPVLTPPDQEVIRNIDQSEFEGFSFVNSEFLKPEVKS
Summary of the method: as §1

[18] = biological target: T18, SRMS (Homo sapiens, UniProt Q9H3Y6); details: read-out: Residual Activity (%)
T18 construct: purchased ProQinase
T18 sequence (Q9H3Y6 whole entry): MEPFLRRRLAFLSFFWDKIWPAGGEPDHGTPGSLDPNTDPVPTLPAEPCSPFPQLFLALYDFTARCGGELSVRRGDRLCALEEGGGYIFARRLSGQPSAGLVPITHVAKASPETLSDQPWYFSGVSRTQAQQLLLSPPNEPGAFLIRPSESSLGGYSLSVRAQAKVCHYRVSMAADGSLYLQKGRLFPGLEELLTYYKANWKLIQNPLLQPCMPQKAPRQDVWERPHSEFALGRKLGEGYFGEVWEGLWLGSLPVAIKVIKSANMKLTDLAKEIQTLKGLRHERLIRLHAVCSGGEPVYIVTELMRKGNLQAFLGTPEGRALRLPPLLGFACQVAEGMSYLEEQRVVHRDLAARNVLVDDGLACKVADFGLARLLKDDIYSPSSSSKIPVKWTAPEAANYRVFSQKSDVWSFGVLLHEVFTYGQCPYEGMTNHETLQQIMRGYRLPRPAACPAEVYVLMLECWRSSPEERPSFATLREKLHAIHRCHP
Summary of the method: as §1

[19] = biological target: T19, PAK7 (Homo sapiens, UniProt Q9P286); details: PAK7, 1 µM; read-out: Residual Activity (%)
T19 construct: purchased ProQinase
Summary of the method: as §1

[20] = biological target: T20, CDK16/CycY (Homo sapiens, UniProt Q00536); details: read-out: Residual Activity (%)
T20 construct: purchased ProQinase
Summary of the method: as §1

[21] = biological target: T21, PKC-nu (Homo sapiens, UniProt O94806); details: read-out: Residual Activity (%)
T21 construct: purchased ProQinase
Summary of the method: as §1

[22] = biological target: T22, CDC42BPB (Homo sapiens, UniProt Q9Y5S2); details: read-out: Residual Activity (%)
T22 construct: purchased ProQinase
Summary of the method: as §1

[23] = biological target: T23, LIMK1 (Homo sapiens, UniProt P53667); details: LIMK1, 1 µM; read-out: Residual Activity (%)
T23 construct: purchased ProQinase
Summary of the method: as §1

[24] = biological target: T24, HIPK2 (Homo sapiens, UniProt Q9H2X6); details: HIPK2, 1 µM; read-out: Residual Activity (%)
T24 construct: purchased ProQinase
Summary of the method: as §1

[25] = biological target: T25, CLK1 (Homo sapiens, UniProt P49759); details: CLK1, 1 µM; read-out: Residual Activity (%)
T25 construct: purchased ProQinase
T25 sequence (P49759 whole entry): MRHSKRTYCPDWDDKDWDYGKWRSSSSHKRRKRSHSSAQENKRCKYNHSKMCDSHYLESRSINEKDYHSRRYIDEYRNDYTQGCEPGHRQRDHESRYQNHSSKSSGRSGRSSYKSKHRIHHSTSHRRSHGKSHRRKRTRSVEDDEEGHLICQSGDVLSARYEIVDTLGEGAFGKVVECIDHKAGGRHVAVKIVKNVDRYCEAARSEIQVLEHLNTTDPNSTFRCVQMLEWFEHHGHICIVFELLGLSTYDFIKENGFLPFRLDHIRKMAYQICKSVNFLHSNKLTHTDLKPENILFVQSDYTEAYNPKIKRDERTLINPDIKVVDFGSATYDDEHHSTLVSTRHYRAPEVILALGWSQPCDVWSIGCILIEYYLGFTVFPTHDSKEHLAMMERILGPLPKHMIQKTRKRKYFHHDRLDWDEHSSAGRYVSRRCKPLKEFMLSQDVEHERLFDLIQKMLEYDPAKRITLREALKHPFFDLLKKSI
Summary of the method: as §1

[26] = biological target: T26, TGFB-R2 (Homo sapiens, UniProt P37173); details: TGFB-R2, 1 µM; read-out: Residual Activity (%)
T26 construct: purchased ProQinase
Summary of the method: as §1

[27] = biological target: T27, HRI (Homo sapiens, UniProt Q9BQI3); details: read-out: Residual Activity (%)
T27 construct: purchased ProQinase
Summary of the method: as §1

T1 sequence (Q8TD19 whole entry): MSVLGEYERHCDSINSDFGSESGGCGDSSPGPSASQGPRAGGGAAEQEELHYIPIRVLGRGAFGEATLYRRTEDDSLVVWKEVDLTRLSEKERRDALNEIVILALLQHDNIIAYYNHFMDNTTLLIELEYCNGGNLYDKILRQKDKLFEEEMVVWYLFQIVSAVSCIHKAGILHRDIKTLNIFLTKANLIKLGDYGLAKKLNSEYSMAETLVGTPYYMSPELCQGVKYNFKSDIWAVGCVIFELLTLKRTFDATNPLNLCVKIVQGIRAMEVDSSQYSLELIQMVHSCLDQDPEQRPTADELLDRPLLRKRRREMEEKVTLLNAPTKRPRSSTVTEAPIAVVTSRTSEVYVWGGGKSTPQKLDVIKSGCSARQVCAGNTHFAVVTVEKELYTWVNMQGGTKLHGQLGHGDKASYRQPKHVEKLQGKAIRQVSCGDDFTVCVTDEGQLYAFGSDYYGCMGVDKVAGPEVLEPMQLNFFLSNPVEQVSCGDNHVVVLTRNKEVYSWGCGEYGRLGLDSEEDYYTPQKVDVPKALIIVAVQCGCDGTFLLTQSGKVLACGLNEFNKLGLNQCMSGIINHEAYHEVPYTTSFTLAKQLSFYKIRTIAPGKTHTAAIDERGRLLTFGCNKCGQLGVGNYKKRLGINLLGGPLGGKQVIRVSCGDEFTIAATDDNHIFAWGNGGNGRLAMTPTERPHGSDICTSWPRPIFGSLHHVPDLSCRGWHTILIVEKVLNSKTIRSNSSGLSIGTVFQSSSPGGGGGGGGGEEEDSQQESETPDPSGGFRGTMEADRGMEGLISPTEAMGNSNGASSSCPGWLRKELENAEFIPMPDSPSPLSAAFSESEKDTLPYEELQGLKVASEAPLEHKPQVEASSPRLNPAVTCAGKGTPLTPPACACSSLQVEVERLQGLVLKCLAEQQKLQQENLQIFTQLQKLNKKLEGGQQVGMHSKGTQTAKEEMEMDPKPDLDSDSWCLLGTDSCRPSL

COc1ccc(-c2cc(C(=O)Nc3cc(-c4c(-c5ccc(F)cc5)noc4C(C)C)ccn3)n(CC3NCC(O)C3O)c2)cc1 (stereo not drawn) [29d]
remaining activity at 1 µM [1]: 91% | remaining activity at 1 µM [2]: 94% | remaining activity at 1 µM [3]: 105% | remaining activity at 1 µM [4]: 98% | remaining activity at 1 µM [5]: 108% | remaining activity at 1 µM [6]: 104% | remaining activity at 1 µM [7]: 103% | remaining activity at 1 µM [8]: 16% | remaining activity at 1 µM [9]: 110% | remaining activity at 1 µM [10]: 105% | remaining activity at 1 µM [11]: 89% | remaining activity at 1 µM [12]: 80% | remaining activity at 1 µM [13]: 116% | remaining activity at 1 µM [14]: 100% | remaining activity at 1 µM [15]: 96% | remaining activity at 1 µM [16]: 106% | remaining activity at 1 µM [17]: 118% | remaining activity at 1 µM [18]: 127% | remaining activity at 1 µM [19]: 97% | remaining activity at 1 µM [20]: 112% | remaining activity at 1 µM [21]: 90% | remaining activity at 1 µM [22]: 86% | remaining activity at 1 µM [23]: 105% | remaining activity at 1 µM [24]: 83% | remaining activity at 1 µM [25]: 97% | remaining activity at 1 µM [26]: 69% | remaining activity at 1 µM [27]: 93%

Reference: paper PMC6429214, “Design, Synthesis and Biological Evaluation of Isoxazole-Based CK1 Inhibitors Modified with Chiral Pyrrolidine Scaffolds” (Molecules, 2019)
